Measured values reported in patent publication US5843959A, “Methods and bicyclic polyamine compositions for the treatment of inflammation” (University of Florida Research Foundation, Inc., priority 1997, dated 1998).
Values joined by “and” are separate entries in the source; they are usually repeats but may differ in a detail not shown here. Equal values may be shown once. “Also recorded” adds a separate entry of the source.

What was measured:
[1] = tested on: adjuvant-induced arthritis
[2] = tested on: BALB/c responder splenocytes with CBA/J stimulator cells; assay: Mixed lymphocyte response (MLR); assay type: cell-based, mouse (BALB/c
Description: (§1) This study examined the potential immunomodulatory activities of PIP[4,4,4] on mouse spleen cells using in vitro techniques. The effect of the compound on the ability of murine splenocytes to respond to the […] mitogen concanavalin A (Con A) and the B cell mitogen lipopolysaccharide (LPS) was studied. […] In addition, the compound was tested for its effect on the mixed lymphocyte response (MLR). The MLR is an in vitro manifestation of cell-mediated immunity in which T cells respond to differences in major histocompatibility complex (MHC) class II molecules (Ia antigens) expressed on foreign or allogeneic leukocytes (primarily B cells and […]/monocytes).
(§2) a. Preparation of cells--Under sterile conditions, spleens were removed from BALB/c (H-2^d) and CBA/J (H-2^k) mice. BALB/c splenocytes were used as responder cells in the mitogen assays and the MLR assays, whereas CBA/J cells were used as stimulator cells in the MLR assays. […] Cells were exposed to various concentrations of the test compounds for the entire culture period. The initial dilutions in medium were filter sterilized to maintain aseptic conditions.
c. […] Thus, a BALB/c (2×10^5 cells/well) anti-CBA/J (8×10^5 cells/well) MLR combination was used in these studies. CBA/J spleen cells were irradiated with 2,000 R to prevent them from responding to BALB/c MHC antigens. Triplicate wells were set up in 96-well flat-bottom microtiter plates for all treated cultures and positive controls (100% of control) were performed in replicates of nine wells. Plates were incubated at 37° C. in a humidified CO2 incubator for 5 days, pulsed with 1 μCI […]/well for 6-16 hours, harvested and counted in a liquid scintillation counter. All data were processed using Lotus 1-2-3 and SigmaPlot software.

[3] = tested on: carrageenan-induced edema in rat paw; assay: Inhibition of carrageenan-induced paw edema in rats
[4] = tested on: type II collagen-induced arthritis; assay: Prevention of type II collagen-induced arthritis in mice; assay type: in vivo, mouse (DBA/1J)
Description: The purpose of this study was to test PIP[4,4,4] in an experimental model of arthritis in DBA/1J mice by observing the onset, duration and remission of inflammation utilizing type II collagen. Twenty male DBA/1J mice, equally divided into two groups of ten animals, were immunized with a single intradermal injection of native type II chick collagen (100 μg/animal, intradermally) in Complete Freund's Adjuvant (CFA) on Day 0. […] On Day 21, both groups received a challenge dose of type II collagen (100 μg/animal, intradermally at the base of the tail, in 50 μl CFA). Daily joint measurements were recorded once per day on Days 20-40. Joints were measured using a constant tension caliper (Mitutoyo Digimatic Thickness Gauge). All mice were measured before the start of the study (Day -1) to obtain baseline readings at three joints on the right and left hindlimb (paw thickness, ankle width and knee width) and two joints of the right and left forelimb (paw thickness and elbow width). […] Four of ten mice treated with PIP[4,4,4] died or were sacrificed in extremis, during the treatment period.

[5] = Solubility in the vehicle; assay type: physicochemical; settings: distilled water
Description: PIP[4,4,4] was obtained as described above. Distilled water was used as the vehicle for in vivo testing. […] Commercially obtained chemicals used were indomethacin and hydrocortisone (Sigma, St. Louis, Mo., U.S.A.), aspirin (Miles Labs., Elkart, IN, U.S.A.), carrageenan (Tokyo Kasei Industry Co., Ltd.), Mycobacterium tuberculosis (Difco Labs., Detroit, Mich., U.S.A.) and carboxymethyl-cellulose (Wako Pure Chemical Industries, Osaka, Japan). Doses of all compounds used were calculated on the basis of the weight of the salt.

[6] = tested on: BALB/c splenocytes stimulated with Con A; assay: Mitogen response to Con A (T cell proliferation); assay type: cell-based, mouse (BALB/c)
Description: as §1, §2
b. Mitogen assays--Con A and LPS were obtained from Sigma Chemical Co. (St. Louis, Mo., U.S.A.). 2×10^5 BALB/c splenocytes were added per well. […] Triplicate wells were set up in 96-well flat-bottom microtiter plates for all treated cultures and positive controls (100% of control) were performed in replicates of nine wells. Plates were incubated at 37° C. in a humidified CO2 incubator for 3 days, pulsed with 1 μCi ^3 H-TdR/well for 6-16 hours, harvested and counted in a liquid scintillation counter. All data were processed using Lotus 1-2-3 and SigmaPlot software.

[7] = tested on: adjuvant-induced arthritis; assay: Adjuvant-induced arthritis model in Lewis rats (Table 7); settings: p.o. 5 days, DiPIPs 100 mg/kg, Voltaren and indomethacin 6 mg/kg
Description: Four groups consisting of 6 male Lewis rats weighing 150-200 g were injected subcutaneously at the base of the tail with 0.1 ml of CFA. Drugs to be assayed were administered 5 days beginning on the day of the adjuvant injection. The paw volume of the right and left rear paw of each rat were measured on the day of adjuvant injection and at regular intervals for 30 days thereafter.
The emulsion was injected subcutaneously at the base of the tail and induced the arthritic state. Measurements of paw volume were made for 30 days to monitor paw swelling. Drug treatment began on Day 0.
Four groups consisting of 10 male Lewis rats weighing 150-200 g were injected subcutaneously at the base of the tail with 0.1 ml of CFA. Drugs to be assayed were administered for 5 days beginning on the day of the adjuvant injection.

[8] = 100 mg/kg p.o. daily for 5 consecutive days
[9] = Day 19, individual rat, p.o. × 5: PIP[4,4,4] 100, hydrocortisone 30, indomethacin 5 mg/kg

C(CCNCC1CCNCC1)CNCC1CCNCC1 [PIP[4,4,4], N,N'-Bis(4-piperidinylmethyl)-1,4-butanediamine]
Acute and late phase swelling (in words) [1, 8]: reduced both part of the acute phase and inhibited the development of the late phase swelling in the contralateral paw
Signs of polyarthritis in the paws (in words) [1, 8]: did not prevent the appearance of signs of polyarthritis in the paws
Inhibition % B (5-0) ([1]; 5th day after 5 doses, p.o.: PIP[4,4,4] 100, hydrocortisone 30, indomethacin 5 mg/kg, >30% significant): 26%
Net swelling of paw volume A (1-0), average ([1]; Day 1 - Day 0, average, p.o. × 5: PIP[4,4,4] 100, hydrocortisone 30, indomethacin 5 mg/kg): 0.74 mL
Net swelling of paw volume B (5-0), average ([1]; Day 5 - Day 0, average, p.o. × 5: PIP[4,4,4] 100, hydrocortisone 30, indomethacin 5 mg/kg): 1.22 mL
Net swelling of paw volume B (5-0) ([1]; Day 5 - Day 0, individual rat, p.o. × 5: PIP[4,4,4] 100, hydrocortisone 30, indomethacin 5 mg/kg): 1.17 mL and 1.49 mL and 1.04 mL and 1.37 mL and 1.03 mL
Net swelling of paw volume C (5-1), average ([1]; Day 5 - Day 1, average, p.o. × 5: PIP[4,4,4] 100, hydrocortisone 30, indomethacin 5 mg/kg): 0.48 mL
Net swelling of paw volume C (5-1) ([1]; Day 5 - Day 1, individual rat, p.o. × 5: PIP[4,4,4] 100, hydrocortisone 30, indomethacin 5 mg/kg): 0.34 mL and 0.70 mL and 0.50 mL and 0.52 mL
Polyarthritis E (ears) [1, 9]: -
Polyarthritis N (noses) [1, 9]: -
Polyarthritis P (paws) [1, 9]: +
Polyarthritis T (tails) [1, 9]: -
B.W. Gain (18-0), average ([1]; average, p.o. × 5: PIP[4,4,4] 100, hydrocortisone 30, indomethacin 5 mg/kg): 25 g
Inhibition % A (1-0) ([1]; first day, after one dose, p.o.: PIP[4,4,4] 100, hydrocortisone 30, indomethacin 5 mg/kg, >30% significant): 11%
B.W. Gain (18-0) ([1]; individual rat, p.o. × 5: PIP[4,4,4] 100, hydrocortisone 30, indomethacin 5 mg/kg): 20 g and 35 g and 5 g and 30 g
Inhibition % C (5-1) ([1]; paw volume change Day 1 to Day 5, p.o. × 5: PIP[4,4,4] 100, hydrocortisone 30, indomethacin 5 mg/kg, >30% significant): 41%
Net swelling of paw volume D (14-0), average ([1]; untreated paw, Day 14 - Day 0, average, p.o. × 5: PIP[4,4,4] 100, hydrocortisone 30, indomethacin 5 mg/kg): 0.29 mL
Net swelling of paw volume D (14-0) ([1]; untreated paw, Day 14 - Day 0, individual rat, p.o. × 5: PIP[4,4,4] 100, hydrocortisone 30, indomethacin 5 mg/kg): 0.25 mL and 0.43 mL and 0.23 mL and 0.34 mL and 0.20 mL
Inhibition % D (14-0) ([1]; untreated paw, Day 14 relative to Day 0, p.o. × 5: PIP[4,4,4] 100, hydrocortisone 30, indomethacin 5 mg/kg, >30% significant): 36%
Inhibition % F (18-14) ([1]; untreated paw, Day 14 to Day 18, p.o. × 5: PIP[4,4,4] 100, hydrocortisone 30, indomethacin 5 mg/kg, >30% significant): 47%
Net swelling of paw volume E (18-0), average ([1]; untreated paw, Day 18 - Day 0, average, p.o. × 5: PIP[4,4,4] 100, hydrocortisone 30, indomethacin 5 mg/kg): 0.45 mL
Net swelling of paw volume E (18-0) ([1]; untreated paw, Day 18 - Day 0, individual rat, p.o. × 5: PIP[4,4,4] 100, hydrocortisone 30, indomethacin 5 mg/kg): 0.35 mL and 0.55 mL and 0.37 mL and 0.45 mL and 0.53 mL
Net swelling of paw volume F (18-14), average ([1]; untreated paw, Day 18 - Day 14, average, p.o. × 5: PIP[4,4,4] 100, hydrocortisone 30, indomethacin 5 mg/kg): 0.16 mL
Net swelling of paw volume F (18-14) ([1]; untreated paw, Day 18 - Day 14, individual rat, p.o. × 5: PIP[4,4,4] 100, hydrocortisone 30, indomethacin 5 mg/kg): 0.10 mL and 0.12 mL and 0.14 mL and 0.11 mL and 0.33 mL
Inhibition % E (18-0) ([1]; untreated paw, Day 18 relative to Day 0, p.o. × 5: PIP[4,4,4] 100, hydrocortisone 30, indomethacin 5 mg/kg, >30% significant): 40%
Weight gain reductions (in words) ([1]; vs vehicle-treated animals, 18 day study): did not affect weight gain reductions
Effect on MLR (in words) [2]: MLR was inhibited by PIP[4,4,4] primarily at 10 and 100 μm
Proliferative response (CPM), Mean ± SD ([2]; MLR, 5 days, drug 0.010 μm): 330859 ± 11640 CPM
Proliferative response (CPM), Mean ± SD ([2]; MLR, 5 days, drug 0.100 μm): 411919 ± 6106 CPM
Proliferative response (CPM), Mean ± SD ([2]; MLR, 5 days, drug 1.000 μm): 54594 ± 11873 CPM
Proliferative response (CPM), Mean ± SD ([2]; MLR, 5 days, drug 10.000 μm): 568531 ± 6200 CPM
Proliferative response (CPM), Mean ± SD ([2]; MLR, 5 days, drug 100.000 μm): 29717 ± 3146 CPM
Proliferative response (CPM), Mean ± SD ([2]; MLR, 5 days, drug 1000.000 μm): 22583 ± 2490 CPM
activity at 0.01 µM ([2]; Mus musculus, Splenocyte, 120 h, MLR, 5 days, drug 0.010 μm, read-out: % Control): 79%
activity at 0.1 µM ([2]; Mus musculus, Splenocyte, 120 h, MLR, 5 days, drug 0.100 μm, read-out: % Control): 99%
activity at 1 µM ([2]; Mus musculus, Splenocyte, 120 h, MLR, 5 days, drug 1.000 μm, read-out: % Control): 131%
activity at 10 µM ([2]; Mus musculus, Splenocyte, 120 h, MLR, 5 days, drug 10.000 μm, read-out: % Control): 136%
activity at 100 µM ([2]; Mus musculus, Splenocyte, 120 h, MLR, 5 days, drug 100.000 μm, read-out: % Control): 71%
activity at 1000 µM ([2]; Mus musculus, Splenocyte, 120 h, MLR, 5 days, drug 1000.000 μm, read-out: % Control): 54%
Acute anti-inflammatory activity (in words) ([3]; 30 mg/kg intraperitoneally): significantly reducing the extent of carrageenan-induced paw edema
% Edema inhibition ([3]; vs vehicle control, aspirin 150 mg/kg p.o., hydrocortisone 25 mg/kg p.o., PIP[4,4,4] 30 mg/kg i.p., >30% significant): 58%
Toxicity of compound administration (in words) ([4]; 75 mg/kg i.p. daily, dosage decreased to 50 mg/kg on Day 26): overt toxicity
Day on which decrease in joint measurements first evident ([4]; i.p. daily from Day 20, 75 mg/kg): ≤ 25 days
Mice died or sacrificed in extremis ([4]; i.p. daily from Day 20, 75 then 50 mg/kg, during treatment period): Four of ten
Joint measurements / degree of inflammation (in words) ([4]; i.p. daily from Day 20, 75 then 50 mg/kg, vs saline control): Joint measurements decreased; also recorded: significantly less than that in mice treated with equal volumes of saline (control)
Solubility in the vehicle [5]: completely soluble
Effect on Con A response (in words) [6]: no inhibitory effect on the Con A response
Proliferative response (CPM), Mean ± SD ([6]; Con A 3 μg/ml, drug 0.010 μm): 343389 ± 21927 CPM
Proliferative response (CPM), Mean ± SD ([6]; Con A 3 μg/ml, drug 0.100 μm): 333419 ± 31211 CPM
Proliferative response (CPM), Mean ± SD ([6]; Con A 3 μg/ml, drug 1.000 μm): 340397 ± 25586 CPM
Proliferative response (CPM), Mean ± SD ([6]; Con A 3 μg/ml, drug 10.000 μm): 365771 ± 2876 CPM
Proliferative response (CPM), Mean ± SD ([6]; Con A 3 μg/ml, drug 100.000 μm): 313504 ± 279 CPM
Proliferative response (CPM), Mean ± SD ([6]; Con A 3 μg/ml, drug 1000.000 μm): 273418 ± 14954 CPM
activity at 0.01 µM ([6]; Mus musculus, Splenocyte, 72 h, Con A 3 μg/ml, drug 0.010 μm, read-out: % Control): 173%
activity at 0.1 µM ([6]; Mus musculus, Splenocyte, 72 h, Con A 3 μg/ml, drug 0.100 μm, read-out: % Control): 168%
activity at 1 µM ([6]; Mus musculus, Splenocyte, 72 h, Con A 3 μg/ml, drug 1.000 μm, read-out: % Control): 172%
activity at 10 µM ([6]; Mus musculus, Splenocyte, 72 h, Con A 3 μg/ml, drug 10.000 μm, read-out: % Control): 185%
activity at 100 µM ([6]; Mus musculus, Splenocyte, 72 h, Con A 3 μg/ml, drug 100.000 μm, read-out: % Control): 158%
activity at 1000 µM ([6]; Mus musculus, Splenocyte, 72 h, Con A 3 μg/ml, drug 1000.000 μm, read-out: % Control): 138%
% FINAL INHIBITION ([7]; Day 28-0): 58%
FINAL DAY 28-0 (paw volume) [7]: .801
INITIAL DAY 14-0 (paw volume) [7]: .496
